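Each compound was tested at five concentrations against cells in 96-well plates for 48 hours. GI50 marks 50% less growth. TGI: concentration producing complete growth inhibition.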 Some results are limits rather than exact numbers.

In the first experiment the test system is M14 melanoma. Description: growth of human tumour cells (NCI), 48 h.
`O=C1OC(O)[C@@H]2[C@H]1[C@H]1CC[C@@H]2O1` (stereo partly drawn): the GI50 is 84.5 µM and the TGI was above 100 µM.

On to `O=C1c2cc3c(cc2-c2c1c1ccc(F)cc1c(=O)n2CCCNCCO)OCO3`, for which the GI50 is 0.0367 µM and the TGI was 1.09 µM.

As to `COC(=O)C1=C(C)NC(C)=C(C(=O)OCCCN2CCC(c3ccccc3)(c3ccccc3)CC2)C1c1cccc([N+](=O)[O-])c1` (stereo not drawn), the TGI stood at 3.13 µM.

With `CCCCCCCCC/C=C1\CCC(CN2CCOCC2)C1=O` (stereo not drawn), the TGI came to 9.41 µM.

For the compound `N=Nc1c(OC(=O)Nc2cccc(Cl)c2)[nH]c2ccccc12`, the TGI stood at 18.6 µM.

For the compound `CC1(C)C2CCC(=O)C1CC2` (stereo not drawn), the TGI is above 100 µM.

As for `Fc1cc2[nH]ncc2c2c3c(c(-c4cn[nH]c4)nc12)CCCC3`, the GI50 was 0.541 µM and the TGI stood at 4.54 µM.

In the case of `C=C1C(=O)O[C@H]2[C@H]1CC/C(COC(=O)c1c[nH]c3ccccc13)=C\CC[C@@]1(C)O[C@@H]21`, the GI50 is 0.229 µM and the TGI is 0.651 µM.

In turn, `C/C(=N\NC(=S)NC(CCC(=O)O)C(=O)O)c1ccccn1` (stereo not drawn) returned a TGI above 100 µM.

In the case of `CCN1CCN(c2nc(C)cc(N(CCNc3ccnc4cc(Cl)ccc34)Cc3ccc4c(c3)OCO4)n2)CC1`, the GI50 is 1.84 µM and the TGI was 3.44 µM.

Take `CCN(CC)c1ccc(-c2cc(-c3cc(OC)c(OC)c(OC)c3)nc(N3CCOCC3)c2C#N)cc1`: the GI50 is 0.292 µM and the TGI amounted to 1.33 µM.

`C=C(Br)C(C)(Br)CCC(Br)C(C)(C)Cl` (stereo not drawn) registered a TGI of 39 µM.

For the compound `O=C(CCc1nnc2sc(-c3ccc(Cl)cc3Cl)nn12)c1nc2ncccc2[nH]1`, the GI50 is 3.35 µM and the TGI worked out at 16.5 µM.

In turn, `NS(=O)(=O)c1cc(Br)c(N=Nc2ccc(O)c3ncccc23)c(Br)c1` came in with a TGI of 76.8 µM.

For `COc1ccc(-c2nnc(COc3ccc(C(=O)/C=C/c4ccco4)cc3)o2)cc1`, the GI50 is 4.03 µM and the TGI stood at 14.6 µM.

`OCc1ccc(-c2ccc(-c3ccc(CO)s3)o2)s1` returned a TGI above 84.3 µM.

`Cc1ccccc1S(=O)(=O)OC1NS(=O)(=O)c2ccccc21` (stereo not drawn) came in with a TGI above 100 µM.

Regarding `O=C(/C=C/c1ccncc1)c1cc(Cl)ccc1O`, the GI50 is 17.5 µM and the TGI was determined as 34.1 µM.

`Cc1cc(/C=C/c2ccc3cc(N(C)C)ccc3[n+]2C)c(C)n1-c1ccccc1`: the GI50 was 0.3 µM and the TGI was 1.25 µM.

In another experiment the test system is RXF 393 renal. Put plainly: growth of human tumour cells (NCI), 48 h.
In the case of `O=C1OC(O)[C@@H]2[C@H]1[C@H]1CC[C@@H]2O1` (stereo partly drawn), the GI50 is 57 µM and the TGI is above 100 µM.

For `O=C1c2cc3c(cc2-c2c1c1ccc(F)cc1c(=O)n2CCCNCCO)OCO3`, the GI50 was 0.1 µM and the TGI was 0.322 µM.

For the compound `COC(=O)C1=C(C)NC(C)=C(C(=O)OCCCN2CCC(c3ccccc3)(c3ccccc3)CC2)C1c1cccc([N+](=O)[O-])c1` (stereo not drawn), the TGI amounted to 3.43 µM.

On to `CCCCCCCCC/C=C1\CCC(CN2CCOCC2)C1=O` (stereo not drawn), for which the TGI amounted to 4 µM.

As for `N=Nc1c(OC(=O)Nc2cccc(Cl)c2)[nH]c2ccccc12`, the TGI is 26.1 µM.

Consider `CC1(C)C2CCC(=O)C1CC2` (stereo not drawn), for which the TGI was above 100 µM.

Turning to `Fc1cc2[nH]ncc2c2c3c(c(-c4cn[nH]c4)nc12)CCCC3`, the GI50 is 0.275 µM and the TGI is 1.27 µM.

For the compound `C=C1C(=O)O[C@H]2[C@H]1CC/C(COC(=O)c1c[nH]c3ccccc13)=C\CC[C@@]1(C)O[C@@H]21`, the GI50 is 0.19 µM and the TGI amounted to 0.391 µM.

For the compound `C/C(=N\NC(=S)NC(CCC(=O)O)C(=O)O)c1ccccn1` (stereo not drawn), the TGI was above 100 µM.

In the case of `CCN1CCN(c2nc(C)cc(N(CCNc3ccnc4cc(Cl)ccc34)Cc3ccc4c(c3)OCO4)n2)CC1`, the GI50 is 1.44 µM and the TGI was determined as 3.08 µM.

Turning to `CCN(CC)c1ccc(-c2cc(-c3cc(OC)c(OC)c(OC)c3)nc(N3CCOCC3)c2C#N)cc1`, the GI50 is 1.01 µM and the TGI was found to be 21 µM.

In the case of `C=C(Br)C(C)(Br)CCC(Br)C(C)(C)Cl` (stereo not drawn), the TGI was found to be 37.5 µM.

With `O=C(CCc1nnc2sc(-c3ccc(Cl)cc3Cl)nn12)c1nc2ncccc2[nH]1`, the GI50 was 1.8 µM and the TGI was 3.34 µM.

As for `NS(=O)(=O)c1cc(Br)c(N=Nc2ccc(O)c3ncccc23)c(Br)c1`, the TGI was above 100 µM.

As for `COc1ccc(-c2nnc(COc3ccc(C(=O)/C=C/c4ccco4)cc3)o2)cc1`, the GI50 was 1.87 µM and the TGI is 3.62 µM.

With `OCc1ccc(-c2ccc(-c3ccc(CO)s3)o2)s1`, the TGI was 1.77 µM.

`Cc1ccccc1S(=O)(=O)OC1NS(=O)(=O)c2ccccc21` (stereo not drawn) showed a TGI above 100 µM.

Take `O=C(/C=C/c1ccncc1)c1cc(Cl)ccc1O`: the GI50 is 18.3 µM and the TGI was 33.1 µM.

Consider `Cc1cc(/C=C/c2ccc3cc(N(C)C)ccc3[n+]2C)c(C)n1-c1ccccc1`, for which the GI50 is 0.199 µM and the TGI turned out to be 0.987 µM.

Another experiment concerns A498 renal. Put plainly: growth of human tumour cells (NCI), 48 h.
As for `O=C1OC(O)[C@@H]2[C@H]1[C@H]1CC[C@@H]2O1` (stereo partly drawn), the GI50 is 7.07 µM and the TGI came out at 51.9 µM.

Turning to `O=C1c2cc3c(cc2-c2c1c1ccc(F)cc1c(=O)n2CCCNCCO)OCO3`, the GI50 is 0.137 µM and the TGI came out at 0.491 µM.

`COC(=O)C1=C(C)NC(C)=C(C(=O)OCCCN2CCC(c3ccccc3)(c3ccccc3)CC2)C1c1cccc([N+](=O)[O-])c1` (stereo not drawn) came in with a TGI of 8.69 µM.

`CCCCCCCCC/C=C1\CCC(CN2CCOCC2)C1=O` (stereo not drawn) came in with a TGI of 24.5 µM.

Consider `N=Nc1c(OC(=O)Nc2cccc(Cl)c2)[nH]c2ccccc12`, for which the TGI was 26.1 µM.

On to `CC1(C)C2CCC(=O)C1CC2` (stereo not drawn), for which the TGI was above 100 µM.

On to `Fc1cc2[nH]ncc2c2c3c(c(-c4cn[nH]c4)nc12)CCCC3`, for which the GI50 is 0.365 µM and the TGI was found to be 1.64 µM.

For `C=C1C(=O)O[C@H]2[C@H]1CC/C(COC(=O)c1c[nH]c3ccccc13)=C\CC[C@@]1(C)O[C@@H]21`, the GI50 was 0.267 µM and the TGI was determined as 1.03 µM.

For `C/C(=N\NC(=S)NC(CCC(=O)O)C(=O)O)c1ccccn1` (stereo not drawn), the TGI was above 100 µM.

For the compound `CCN1CCN(c2nc(C)cc(N(CCNc3ccnc4cc(Cl)ccc34)Cc3ccc4c(c3)OCO4)n2)CC1`, the GI50 is 1.9 µM and the TGI is 5.71 µM.

These data come from PubChem BioAssay (NCI).
